This passage reports T/C results from PubChem BioAssay AID248 (DTP/NCI, 2004).

This assay deals with L1210 leukemia ip in BDF1 mice, survival T/C. The experiment in a line: NCI In Vivo Anticancer Drug Screen. Data for tumor model L1210 Leukemia (intraperitoneal) in B6D2F1 (BDF1) mice. To be noted: endpoint: mean survival time, higher = longer survival. The method in brief: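 Antitumor effect is assessed in tumor-bearing animals. Survival in the compound arm is compared with a vehicle-dosed control arm and expressed as their quotient.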

Where [1] appears, read: dose: 100.0 mg/kg/injection, schedule: Q04DX003 (ip), vehicle: gum acacia.
[2] abbreviates: dose: 200.0 mg/kg/injection, schedule: Q04DX003 (ip), vehicle: gum acacia.
The mark [3] stands for this setting: dose: 100.0 mg/kg/injection, schedule: Q01DX009 (ip), vehicle: gum acacia.
Setting [4] is: dose: 200.0 mg/kg/injection, schedule: Q01DX009 (ip), vehicle: gum acacia.
The mark [5] stands for this setting: dose: 400.0 mg/kg/injection, schedule: Q01DX009 (ip), vehicle: gum acacia.
The mark [6] stands for this setting: dose: 400.0 mg/kg/injection, schedule: Q04DX003 (ip), vehicle: gum acacia.
Where [7] appears, read: dose: 100.0 mg/kg/injection, schedule: Q01DX001 (ip), vehicle: carboxymethylcellulose (CMC).
Where [8] appears, read: dose: 200.0 mg/kg/injection, schedule: Q01DX001 (ip), vehicle: carboxymethylcellulose (CMC).
Where [9] appears, read: dose: 400.0 mg/kg/injection, schedule: Q01DX001 (ip), vehicle: carboxymethylcellulose (CMC).
[10] abbreviates: dose: 12.5 mg/kg/injection, schedule: Q01DX009 (ip), vehicle: saline with Tween-80.
Setting [11] is: dose: 25.0 mg/kg/injection, schedule: Q01DX009 (ip), vehicle: saline with Tween-80.
The mark [12] stands for this setting: dose: 100.0 mg/kg/injection, schedule: Q01DX009 (ip), vehicle: Klucel (hydroxypropylcellulose) (HPC).
Setting [13] is: dose: 200.0 mg/kg/injection, schedule: Q01DX009 (ip), vehicle: Klucel (hydroxypropylcellulose) (HPC).
The mark [14] stands for this setting: dose: 400.0 mg/kg/injection, schedule: Q01DX009 (ip), vehicle: Klucel (hydroxypropylcellulose) (HPC).
The mark [15] stands for this setting: dose: 100.0 mg/kg/injection, schedule: Q04DX003 (ip), vehicle: saline with Tween-80.
Where [16] appears, read: dose: 200.0 mg/kg/injection, schedule: Q04DX003 (ip), vehicle: saline with Tween-80.
Setting [17] is: dose: 400.0 mg/kg/injection, schedule: Q04DX003 (ip), vehicle: saline with Tween-80.

Toxic doses and inconclusive results are not listed.

For the compound `CCCCC[C@H](O)/C=C/[C@@H]1[C@@H](C/C=C\CCCC(=O)O)[C@@H](O)C[C@H]1O`, the T/C by setting is: (dose: 0.25 mg/kg/injection, schedule: Q#A X020 (ip), vehicle: saline) 98 % of control; (dose: 0.5 mg/kg/injection, schedule: Q#A X020 (ip), vehicle: saline) 96 % of control; (dose: 1.0 mg/kg/injection, schedule: Q#A X020 (ip), vehicle: saline) 101 % of control; (dose: 2.0 mg/kg/injection, schedule: Q#A X020 (ip), vehicle: saline) 104 % of control; (dose: 5.0 mg/kg/injection, schedule: Q04DX002 (ip), vehicle: saline) 96 % of control; (dose: 10.0 mg/kg/injection, schedule: Q04DX002 (ip), vehicle: saline) 96 % of control. Besides, the T/C (dose: 20.0 mg/kg/injection, schedule: Q04DX002 (ip), vehicle: saline) was 88 % of control.
With `COCn1c2ccccc2c2nc(-c3ccncc3)nc(-c3ccncc3)c21`, the T/C is, setting by setting: (dose: 100.0 mg/kg/injection, schedule: Q04DX002 (ip), vehicle: Klucel (hydroxypropylcellulose) (HPC)) 98 % of control; (dose: 200.0 mg/kg/injection, schedule: Q04DX002 (ip), vehicle: Klucel (hydroxypropylcellulose) (HPC)) 98 % of control; (dose: 400.0 mg/kg/injection, schedule: Q04DX002 (ip), vehicle: Klucel (hydroxypropylcellulose) (HPC)) 95 % of control.
As for `COc1ccc(CCC(=O)O)cc1`, the T/C by setting is: (dose: 50.0 mg/kg/injection, schedule: Q04DX003 (ip), vehicle: gum acacia) 98 % of control; under setting [1], 98 % of control; under setting [2], 95 % of control.
For `C=CCc1cc2c(C)cc(=O)oc2c(C)c1OC(C)=O`, the T/C was 100 % of control under setting [3]; 98 % of control under setting [1]; 96 % of control under setting [4]; 103 % of control under setting [2]; 91 % of control under setting [5]; 90 % of control under setting [6].
On to `O=C(O)CN(CCCCN(CC(=O)O)CC(=O)O)CC(=O)O`, for which the T/C reads like this: (dose: 100.0 mg/kg/injection, schedule: Q01DX001 (ip), vehicle: other) 111 % of control; (dose: 200.0 mg/kg/injection, schedule: Q01DX001 (ip), vehicle: other) 117 % of control; (dose: 400.0 mg/kg/injection, schedule: Q01DX001 (ip), vehicle: other) 96 % of control.
On to `ClCCN(CC#CCCCC#CCN(CCCl)CCCl)CCCl`, for which the T/C (dose: 100.0 mg/kg/injection, schedule: Q01DX001 (ip), vehicle: saline) was 168 % of control.
For `Nc1c(N)c2ccccc2c2ccccc12`, the T/C is 115 % of control (dose: 50.0 mg/kg/injection, schedule: Q01DX001 (ip), vehicle: carboxymethylcellulose (CMC)); 110 % of control under setting [7]; 117 % of control under setting [8]; 110 % of control under setting [9].
In the case of `N#C/C(=C\c1ccc(-c2ccccc2)cc1)c1ccc([N+](=O)[O-])cc1`, the T/C runs as follows: under setting [10], 90 % of control; (dose: 12.5 mg/kg/injection, schedule: Q04DX003 (ip), vehicle: saline with Tween-80) 95 % of control; under setting [11], 88 % of control; (dose: 25.0 mg/kg/injection, schedule: Q04DX003 (ip), vehicle: saline with Tween-80) 93 % of control; (dose: 50.0 mg/kg/injection, schedule: Q04DX003 (ip), vehicle: saline with Tween-80) 88 % of control.
Turning to `CCCCCCCCCC(=O)N1CCC(CCCc2ccccc2)CC1`, the T/C (dose: 75.0 mg/kg/injection, schedule: Q01DX001 (ip), vehicle: carboxymethylcellulose (CMC)) was 95 % of control; the T/C (dose: 150.0 mg/kg/injection, schedule: Q01DX001 (ip), vehicle: carboxymethylcellulose (CMC)) was 92 % of control; the T/C (dose: 300.0 mg/kg/injection, schedule: Q01DX001 (ip), vehicle: carboxymethylcellulose (CMC)) is 95 % of control.
In the case of `COc1c(NC(=O)Nc2ccc(SC)cc2)cccc1[N+](=O)[O-]`, the T/C under setting [12] is 89 % of control, the T/C under setting [13] was 98 % of control and the T/C under setting [14] was 93 % of control.
As for `[I][Sn]([c]1ccccc1)([c]1ccccc1)[c]1ccccc1`, the T/C (dose: 0.25 mg/kg/injection, schedule: Q01DX009 (ip), vehicle: Klucel (hydroxypropylcellulose) (HPC)) is 93 % of control; the T/C (dose: 0.5 mg/kg/injection, schedule: Q01DX009 (ip), vehicle: Klucel (hydroxypropylcellulose) (HPC)) is 101 % of control; the T/C (dose: 1.0 mg/kg/injection, schedule: Q01DX009 (ip), vehicle: Klucel (hydroxypropylcellulose) (HPC)) is 97 % of control.
With `CC(C)=CCCOC(N)=O`, the T/C runs as follows: under setting [15], 104 % of control; under setting [16], 102 % of control; under setting [17], 98 % of control.
For `CCOC(=O)C1Oc2ccc(Cl)cc2C1=O` (stereo not drawn), the T/C is 97 % of control (dose: 100.0 mg/kg/injection, schedule: Q04DX002 (ip), vehicle: gum acacia); 97 % of control (dose: 200.0 mg/kg/injection, schedule: Q04DX002 (ip), vehicle: gum acacia); 101 % of control (dose: 400.0 mg/kg/injection, schedule: Q04DX002 (ip), vehicle: gum acacia).
On to `CC1(C(=O)O)CC12c1ccccc1-c1ccccc12` (stereo not drawn), for which the T/C is 103 % of control (dose: 100.0 mg/kg/injection, schedule: Q01DX001 (ip), vehicle: acetone) and 92 % of control (dose: 200.0 mg/kg/injection, schedule: Q01DX001 (ip), vehicle: acetone).
Take `COc1ccc(OC)c(/C=C/C(=O)NCC(O)CO)c1` (stereo not drawn): the T/C is, setting by setting: under setting [15], 105 % of control; under setting [16], 105 % of control; under setting [17], 103 % of control.
Turning to `CCCOC(CCC(=O)NC(C)(C)C)CC(=O)NC(C)(C)C` (stereo not drawn), the T/C under setting [12] is 95 % of control; the T/C (dose: 100.0 mg/kg/injection, schedule: Q04DX003 (ip), vehicle: Klucel (hydroxypropylcellulose) (HPC)) is 103 % of control; the T/C under setting [13] is 90 % of control; the T/C (dose: 200.0 mg/kg/injection, schedule: Q04DX003 (ip), vehicle: Klucel (hydroxypropylcellulose) (HPC)) is 97 % of control; the T/C under setting [14] was 90 % of control; the T/C (dose: 400.0 mg/kg/injection, schedule: Q04DX003 (ip), vehicle: Klucel (hydroxypropylcellulose) (HPC)) was 93 % of control.
As for `COc1cccc(NC(=O)Nc2ccccc2C(F)(F)F)c1`, the T/C runs as follows: (dose: 6.25 mg/kg/injection, schedule: Q01DX009 (ip), vehicle: saline with Tween-80) 92 % of control; under setting [10], 92 % of control; under setting [11], 90 % of control; (dose: 50.0 mg/kg/injection, schedule: Q01DX009 (ip), vehicle: saline with Tween-80) 90 % of control; (dose: 100.0 mg/kg/injection, schedule: Q01DX009 (ip), vehicle: saline with Tween-80) 94 % of control.
As to `CCOC(=O)C1(C)OCCO1`, the T/C is 101 % of control (dose: 100.0 mg/kg/injection, schedule: Q01DX009 (ip), vehicle: saline); 103 % of control (dose: 100.0 mg/kg/injection, schedule: Q04DX003 (ip), vehicle: saline); 100 % of control (dose: 200.0 mg/kg/injection, schedule: Q01DX009 (ip), vehicle: saline); 96 % of control (dose: 200.0 mg/kg/injection, schedule: Q04DX003 (ip), vehicle: saline); 95 % of control (dose: 400.0 mg/kg/injection, schedule: Q01DX009 (ip), vehicle: saline); 99 % of control (dose: 400.0 mg/kg/injection, schedule: Q04DX003 (ip), vehicle: saline).
With `COc1ccc(C(CCl)(CCl)c2ccc(OC)cc2)cc1`, the T/C runs as follows: under setting [3], 110 % of control; under setting [1], 92 % of control; under setting [4], 98 % of control; under setting [2], 101 % of control; under setting [5], 93 % of control; under setting [6], 103 % of control.
As for `Cc1nc(N)c2c(n1)C(Cc1ccccc1)N(C(=O)c1ccccc1)C2` (stereo not drawn), the T/C was 97 % of control under setting [7], 97 % of control under setting [8] and 103 % of control under setting [9].
